According to PubChem BioAssay (NCI):
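Dose response: 5 concentrations. Exposure: 48 h. Format: 96-well plates. Endpoint: linear interpolation; highest concentration if not reached. At the TGI there is no net growth.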

Columns and labels:
Assay in all cases: growth of human tumour cells (NCI), 48 h
SK-MEL-28 melanoma = tested on: SK-MEL-28 melanoma
NCI-H522 lung = tested on: NCI-H522 lung
UACC-257 melanoma = tested on: UACC-257 melanoma
SK-MEL-5 melanoma = tested on: SK-MEL-5 melanoma
SN12C renal = tested on: SN12C renal
NCI-H226 lung = tested on: NCI-H226 lung
OVCAR-8 ovarian = tested on: OVCAR-8 ovarian
RXF 393 renal = tested on: RXF 393 renal
MDA-MB-231 breast = tested on: MDA-MB-231 breast
LOX IMVI melanoma = tested on: LOX IMVI melanoma

| Compound | TGI (SK-MEL-28 melanoma) | TGI (NCI-H522 lung) | TGI (UACC-257 melanoma) | TGI (SK-MEL-5 melanoma) | TGI (SN12C renal) | TGI (NCI-H226 lung) | TGI (OVCAR-8 ovarian) | TGI (RXF 393 renal) | TGI (MDA-MB-231 breast) | TGI (LOX IMVI melanoma) |
| --- | --- | --- | --- | --- | --- | --- | --- | --- | --- | --- |
| O=C(NNc1nc(-c2ccccc2)cs1)C(F)(F)F | 88.8 µM | > 100 µM | > 100 µM | > 100 µM | > 100 µM | > 100 µM | > 100 µM | > 100 µM | > 100 µM | > 100 µM |
| O=C1c2cn[nH]c2C(c2ccccc2)N1c1ccccc1 (stereo not drawn) | > 10 µM | > 10 µM | > 10 µM | > 10 µM | > 10 µM | > 10 µM | > 10 µM | > 10 µM | > 10 µM | > 10 µM |
| O=c1cnn(CCOCP(=O)(O)O)c(=O)[nH]1 | > 100 µM | > 100 µM | > 100 µM | > 100 µM | > 100 µM | > 100 µM | > 100 µM | > 100 µM | > 100 µM | > 100 µM |
| C[Si](C)(C)C1=C([Si](C)(C)C)C(Cl)(Cl)C1=O | 9.29 µM | 3.6 µM | 6.95 µM | 5.89 µM | 15.8 µM | 8.86 µM | 9.78 µM | 5.33 µM | 7.85 µM | 3.51 µM |
| CCCC(CCN)(CCN)[N+](=O)[O-] |  | > 100 µM | > 100 µM | > 100 µM | > 100 µM | > 100 µM | > 100 µM | > 100 µM | > 100 µM |  |
| COc1ccc(C(C2=C(O)COC2=O)c2cc3c(cc2O)OCO3)cc1OC (stereo not drawn) | > 100 µM |  | > 100 µM | > 100 µM | > 100 µM | > 100 µM | > 100 µM | > 100 µM | > 100 µM | > 100 µM |
| CCc1nc2ccc(NCCN(C)C)c3c(=O)c4ccccc4n1c23 | 9.43 µM | 4.89 µM | 11.8 µM | 2.32 µM | 10.6 µM | 4.34 µM | 4.76 µM | 6.03 µM | 2.36 µM | 2.63 µM |
| CN(C)/N=C1\CC(c2ccccc2)C(C#N)(C#N)C1(C#N)C#N (stereo not drawn) | 46 µM | 35.3 µM | 34.3 µM | 24.4 µM | 36.9 µM | 84.7 µM | 41.9 µM | 54.5 µM | 36.9 µM | 79.2 µM |
| CC(C)(C)N(Cc1ccc2c(c1)OCO2)C(=O)/C=C\Sc1ccccc1 | > 100 µM | 59 µM | > 100 µM | > 100 µM | > 100 µM | > 100 µM | > 100 µM |  | > 100 µM | > 100 µM |
| Cc1cc(=O)[nH]c(NN2C(Cl)C(=O)C2c2cccc(Cl)c2)n1 (stereo not drawn) | > 100 µM |  | > 100 µM | 34.2 µM | 62 µM |  | > 100 µM | 23.2 µM |  | 32.8 µM |
| CC(=O)N1CCn2c1nc1cc(Cl)ccc12 | > 100 µM | > 100 µM | > 100 µM | > 100 µM | > 100 µM | > 100 µM | > 100 µM | 53.9 µM | > 100 µM | > 100 µM |
